Results as given in EPA's ToxRefDB 2.

What was measured:
rat [1] = conditions: Subchronic oral toxicity in rodents, wistar, Feed, dose end: 13 week, group: systemic
rabbit [2] = conditions: Prenatal developmental toxicity study, new zealand white, Oral, Gavage/Intubation, dose end: 18 GD
dog [3] = conditions: Chronic toxicity; beagle; Oral; Feed; dose end: 52 week; group: systemic; systemic / clinical chemistry / cytochrome p450, nos / cytochrome p450, nos + systemic / clinical chemistry / glutathione-s-transferase / …
rabbit [4] = conditions: Sub-acute dermal toxicity, new zealand white, Topical, dose end: 21 day, group: systemic, systemic / in life observation / clinical signs / desquamation + systemic / in life observation / clinical signs / erythema + systemic / …
rat [5] = conditions: Sub-acute repeat dose toxicity; wistar; Oral; Feed; dose end: 4 week; group: systemic; systemic / clinical chemistry / lactic acid dehydrogenase (ldh) / lactic acid dehydrogenase (ldh) + systemic / organ weight / liver / …
dog [6] = conditions: Subchronic oral toxicity in nonrodent, beagle, Feed, dose end: 13 week, group: systemic, systemic / clinical chemistry / alkaline phosphatase (alp/alk) / alkaline phosphatase (alp/alk) + systemic / clinical chemistry / gamma …
rat [7] = conditions: Subchronic oral toxicity in rodents, wistar, Feed, dose end: 13 week, group: systemic, systemic / clinical chemistry / calcium / calcium + systemic / clinical chemistry / creatinine / creatinine + systemic / clinical chemistry…
rat [8] = conditions: Sub-acute repeat dose toxicity, wistar, Oral, Feed, dose end: 4 week, group: systemic
rabbit [9] = conditions: Prenatal developmental toxicity study, new zealand white, Oral, Gavage/Intubation, dose end: 18 GD; remark: listed apart in the source
rat [10] = conditions: Sub-acute dermal toxicity, wistar, Topical, dose end: 28 day, group: systemic, systemic / clinical chemistry / cholesterol / cholesterol + systemic / clinical chemistry / globulins / globulins + systemic / clinical …
mouse [11] = conditions: Carcinogenicity; cd1; Oral; Feed; dose end: 88 week; group: systemic; systemic / pathology microscopic / liver / hypertrophy + systemic / pathology microscopic / liver / inflammation + systemic / pathology …
mouse [12] = conditions: Subchronic oral toxicity in rodents, cd1, Feed, dose end: 13 week, group: systemic, systemic / in life observation / body weight / body weight gain + systemic / organ weight / liver / absolute + systemic / organ weight / …
rat [13] = conditions: Prenatal developmental toxicity study, wistar, Oral, Gavage/Intubation, dose end: 15 GD
rat [14] = conditions: Subchronic oral toxicity in rodents, wistar, Feed, dose end: 13 week, group: systemic; remark: listed apart in the source
[15] = systemic / pathology microscopic / thyroid gland / hypertrophy
[16] = group: developmental, developmental / developmental malformation / general / [other] + developmental / developmental malformation / limb / malrotated
[17] = group: maternal, systemic / in life observation / body weight / body weight gain
[18] = group: maternal, systemic / in life observation / body weight / body weight gain + systemic / in life observation / food consumption / food consumption
[19] = systemic / pathology microscopic / liver / lipid deposition + systemic / pathology microscopic / liver / vacuolization
[20] = systemic / pathology microscopic / liver / lipid deposition + systemic / pathology microscopic / liver / vacuolization + systemic / clinical…
[21] = group: developmental, systemic / in life observation / body weight / fetal weight + developmental / developmental malformation / bone / [other] + developmental / …
[22] = group: maternal, reproductive / reproductive performance / postimplantation loss / postimplantation loss + systemic / in life observation / body weight / …
[23] = group: developmental, developmental / developmental malformation / bone / full supernumerary
[24] = group: developmental, developmental / developmental malformation / bone / full supernumerary + developmental / developmental malformation / bone / incomplete …
[25] = group: maternal, systemic / in life observation / body weight / body weight gain + reproductive / reproductive performance / postimplantation loss / …
[26] = systemic / in life observation / body weight / body weight gain + systemic / clinical chemistry / alanine aminotransferase (alt/sgpt) / …

Compound CC(C1CC1)C(O)(Cn1cncn1)c1ccc(Cl)cc1 (stereo not drawn) [Cyproconazole] has an LOAEL (rat [1]; systemic / organ weight / liver / absolute + systemic / organ weight / liver / relative to body weight + systemic / pathology microscopic / …) of 24.7 mg/kg/day, an LEL (rat [1]; [15]) of 1.4 mg/kg/day and an NEL (rat [1]; [15]) of under 1.4 mg/kg/day. The NOAEL (rat [1]; systemic / pathology microscopic / thyroid gland / hypertrophy + systemic / organ weight / liver / absolute + systemic / organ weight / …) was 1.4 mg/kg/day, the LOAEL (rabbit [2]; group: developmental, developmental / developmental malformation / general / [other]) was 10 mg/kg/day and the LEL (rabbit [2]; [16]) was 10 mg/kg/day. The NEL (rabbit [2]; [16]) was 2 mg/kg/day, the NOAEL (rabbit [2]; [16]) was 2 mg/kg/day and the LOAEL (rabbit [2]; [17]) was 50 mg/kg/day. It also gave an LEL (rabbit [2]; [18]) of 50 mg/kg/day, an NEL (rabbit [2]; [18]) of 10 mg/kg/day and an NOAEL (rabbit [2]; [18]) of 10 mg/kg/day. For the same compound, the LEL (dog [3]) was 3.2 mg/kg/day, the LOAEL (dog [3]) was 3.2 mg/kg/day and the NEL (dog [3]) was 1 mg/kg/day. It also gave an NOAEL (dog [3]) of 1 mg/kg/day, an LEL (rabbit [4]) of 1000 mg/kg/day and an LOAEL (rabbit [4]) of 1000 mg/kg/day. It also gave an NEL (rabbit [4]) of 300 mg/kg/day, an NOAEL (rabbit [4]) of 300 mg/kg/day and an LEL (rat [5]) of 25.3 mg/kg/day. For the same compound, the LOAEL (rat [5]) was 25.3 mg/kg/day, the NEL (rat [5]) was 8.14 mg/kg/day and the NOAEL (rat [5]) was 8.14 mg/kg/day. For the same compound, the LEL (dog [6]) was 20 mg/kg/day, the LOAEL (dog [6]) was 20 mg/kg/day and the NEL (dog [6]) was 4 mg/kg/day. For the same compound, the NOAEL (dog [6]) was 4 mg/kg/day, the LEL (rat [7]) was 1.5 mg/kg/day and the LOAEL (rat [7]) was over 21.4 mg/kg/day. The NEL (rat [7]) was under 1.5 mg/kg/day, the NOAEL (rat [7]) was at least 21.4 mg/kg/day and the LEL (rat [8]; [19]) was 527 mg/kg/day. The LOAEL (rat [8]; [19]) was 527 mg/kg/day, the NEL (rat [8]; [20]) was 155 mg/kg/day and the NOAEL (rat [8]; [20]) was 155 mg/kg/day. For the same compound, the LOAEL (rabbit [9]; group: developmental, systemic / in life observation / body weight / fetal weight) was 60 mg/kg/day, the LEL (rabbit [9]; [21]) was 60 mg/kg/day and the NEL (rabbit [9]; [21]) was 10 mg/kg/day. It also gave an NOAEL (rabbit [9]; [21]) of 10 mg/kg/day, an LEL (rabbit [9]; [22]) of 60 mg/kg/day and an LOAEL (rabbit [9]; [22]) of 60 mg/kg/day. The NEL (rabbit [9]; [22]) was 10 mg/kg/day, the NOAEL (rabbit [9]; [22]) was 10 mg/kg/day and the LEL (rat [10]) was 100 mg/kg/day. The LOAEL (rat [10]) was 100 mg/kg/day, the NEL (rat [10]) was 10 mg/kg/day and the NOAEL (rat [10]) was 10 mg/kg/day. It also gave an LEL (mouse [11]) of 13.2 mg/kg/day, an LOAEL (mouse [11]) of 13.2 mg/kg/day and an NEL (mouse [11]) of 1.84 mg/kg/day. For the same compound, the NOAEL (mouse [11]) was 1.84 mg/kg/day, the LEL (mouse [12]) was 43.8 mg/kg/day and the LOAEL (mouse [12]) was 43.8 mg/kg/day. It also gave an NEL (mouse [12]) of 2.2 mg/kg/day, an NOAEL (mouse [12]) of 2.2 mg/kg/day and an LEL (rat [13]; [23]) of 12 mg/kg/day. It also gave an LOAEL (rat [13]; [23]) of 12 mg/kg/day, an NEL (rat [13]; [24]) of 6 mg/kg/day and an NOAEL (rat [13]; [24]) of 6 mg/kg/day. For the same compound, the LEL (rat [13]; [17]) was 12 mg/kg/day, the LOAEL (rat [13]; [17]) was 12 mg/kg/day and the NEL (rat [13]; [25]) was 6 mg/kg/day. It also gave an NOAEL (rat [13]; [25]) of 6 mg/kg/day, an LOAEL (rat [14]; systemic / in life observation / body weight / body weight gain) of 27.3 mg/kg/day and an NEL (rat [14]; [26]) of 1.5 mg/kg/day. For the same compound, the NOAEL (rat [14]; [26]) was 1.5 mg/kg/day and the LEL (rat [14]; systemic / in life observation / body weight / body weight gain + systemic / in life observation / food consumption / food efficiency + …) was 27.3 mg/kg/day.
